Reference: patent US20190337924A1, “SUBSTITUTED HYDANTOIN AND THIOHYDANTOIN DERIVATIVES AS ANDROGEN RECEPTOR ANTAGONISTS” (Janssen Pharmaceutica NV, priority 2016, published 2019)
Counter-ions that a name gives are not always drawn.

What was measured:
[1] = test system: VCaP cells; test: Prostate Cancer Cell Viability Assay-VCaP; type: cell-based; settings: Homo sapiens, 120 h, 10% Charcoal Stripped Serum, 5 days, CellTiter-Glo, * n = 1
Protocol: VCaP cells were counted and seeded into black 384-well plates with clear bottoms at a concentration of 125,000 cells per mL in phenol red-free DMEM containing 10% Charcoal Stripped Serum. 16 μL of the suspension was added per well and incubated for 48 h to allow the cells to adhere. After 48 hours, a 12 point serial semilog dilution of each compound was added to the cells in 16 μL at a final concentration of 100 µM to 0.0003 μM. The compounds of Formula (I) were also run in antagonist mode using 30 pM R1881 in which 8 μL of the compound was added to the cells followed by 8 μL of R1881. After 5 days of incubation at 37° C., 16 μL Of CellTiter-Glo (Promega) was added to the cells and the relative luminescence units (RLUs) of each well determined using the Envision. The percent stimulation and % inhibition were determined for each sample and plotted using GraphPad Prism.

[2] = test system: LNCaP F876L; test: LNCaP Proliferation Assay, LNCaP F876L; type: cell-based; settings: Homo sapiens, 96 h, 1% CSS, 4 days, CellTiter-Glo, normalized to 0.1 nM R1881 stimulation
Protocol: LNCaP cells were expanded in RPMI 10% FBS in T150 flasks. The cells were dislodged with 0.25% Trypsin, washed in complete media, centrifuged (300 g, 3 min), and the supernatant aspirated. The cells were resuspended in RPMI phenol-red free media with 1% charcoal-stripped serum (CSS) and counted using a ViCELL (Beckman-Coulter). 7500 cells were added to each well of a white optical bottom 384-well plate and incubated for 2 days at 37° C. 5% CO2. Compound dilutions were prepared in RPMI CSS using 50 mM stock solutions and added to the cells either alone (agonist mode) or in combination with 0.1 nM R1881 (antagonist mode). The plates were incubated for 4 days, followed by addition of CellTiter-Glo Luminescent Cell Viability kit reagent (Promega). The plates were placed on a shaker at 3000 rpm for 10 minutes and then read on an EnVision plate reader (Perkin Elmer) using Luminescence assay default settings. The data was analyzed, normalized to 0.1 nM R1881 stimulation, and plotted in GraphPad Prism.

CC1(C)C(=O)N(c2ccc(C#N)c(C(F)(F)F)c2)C(=S)N1c1ccc(OC2CCNCC2)cc1 [Compound 1, 4-(4,4-Dimethyl-5-oxo-3-(4-(piperidin-4-yloxy)phenyl)-2-thioxoimidazolidin-1-yl)-2-(trifluoromethyl)benzonitrile]
IC50 [1]: 2.31 µM

CN1CCC(Oc2ccc(N3C(=S)N(c4ccc(C#N)c(C(F)(F)F)c4)C(=O)C3(C)C)cc2)CC1 [Compound 2, 4-(4,4-Dimethyl-3-(4-((1-methylpiperidin-4-yl)oxy)phenyl)-5-oxo-2-thioxoimidazolidin-1-yl)-2-(trifluoromethyl)benzonitrile hydrochloride]
IC50 [2]: 1.31 µM

CC1(C)C(=O)N(c2ccc(C#N)c(C(F)(F)F)c2)C(=S)N1c1ccc(OC2CCNCC2)nc1 [Compound 3, 4-(4,4-Dimethyl-5-oxo-3-(6-(piperidin-4-yloxy)pyridin-3-yl)-2-thioxoimidazolidin-1-yl)-2-(trifluoromethyl)benzonitrile hydrochloride]
IC50 [1]: 4.86 µM

CN1CCC(Oc2ccc(N3C(=S)N(c4ccc(C#N)c(C(F)(F)F)c4)C(=O)C3(C)C)cn2)CC1 [Compound 4, 4-(4,4-Dimethyl-3-(6-((1-methylpiperidin-4-yl)oxy)pyridin-3-yl)-5-oxo-2-thioxoimidazolidin-1-yl)-2-(trifluoromethyl)benzonitrile hydrochloride]
IC50 [1]: 1.66 µM
IC50 [2]: 0.85 µM

CC1(C)C(=O)N(c2ccc(C#N)c(C(F)(F)F)c2)C(=S)N1c1cnc(OC2CCNCC2)nc1 [Compound 5, 4-(4,4-Dimethyl-5-oxo-3-(2-(piperidin-4-yloxy)pyrimidin-5-yl)-2-thioxoimidazolidin-1-yl)-2-(trifluoromethyl)benzonitrile]
IC50 [1]: 13.2 µM
melting point: 239 °C
IC50 [2]: 0.95 µM

CN1CCC(Oc2ncc(N3C(=S)N(c4ccc(C#N)c(C(F)(F)F)c4)C(=O)C3(C)C)cn2)CC1 [Compound 6, 4-(4,4-Dimethyl-3-(2-((1-methylpiperidin-4-yl)oxy)pyrimidin-5-yl)-5-oxo-2-thioxoimidazolidin-1-yl)-2-(trifluoromethyl)benzonitrile]
IC50 [1]: 18.4 µM
melting point: 204.9 °C

CC1(C)C(=O)N(c2ccc(C#N)c(Cl)c2)C(=S)N1c1ccc(OC2CCNCC2)cc1 [Compound 7, 2-Chloro-4-(4,4-dimethyl-5-oxo-3-(4-(piperidin-4-yloxy)phenyl)-2-thioxoimidazolidin-1-yl)benzonitrile hydrochloride]
IC50 [1]: 1.44 µM
IC50 [2]: 31.2 µM

CN1CCC(Oc2ccc(N3C(=S)N(c4ccc(C#N)c(Cl)c4)C(=O)C3(C)C)cc2)CC1 [Compound 8, 2-Chloro-4-(4,4-dimethyl-3-(4-((1-methylpiperidin-4-yl)oxy)phenyl)-5-oxo-2-thioxoimidazolidin-1-yl)benzonitrile hydrochloride]
IC50 [1]: 3.48 µM

CC1(C)C(=O)N(c2ccc(C#N)c(Cl)c2)C(=S)N1c1ccc(OC2CCNCC2)nc1 [Compound 9, 2-Chloro-4-(4,4-dimethyl-5-oxo-3-(6-(piperidin-4-yloxy)pyridin-3-yl)-2-thioxoimidazolidin-1-yl)benzonitrile hydrochloride]
IC50 [1]: 1.68 µM

CN1CCC(Oc2ccc(N3C(=S)N(c4ccc(C#N)c(Cl)c4)C(=O)C3(C)C)cn2)CC1 [Compound 10, 2-Chloro-4-(4,4-dimethyl-3-(6-((1-methylpiperidin-4-yl)oxy)pyridin-3-yl)-5-oxo-2-thioxoimidazolidin-1-yl)benzonitrile hydrochloride]
IC50 [1]: 5.54 µM
IC50 [2]: 0.83 µM

N#Cc1ccc(N2C(=O)C3(CCC3)N(c3ccc(OC4CCNCC4)cc3)C2=S)cc1C(F)(F)F [Compound 11, 4-(8-Oxo-5-(4-(piperidin-4-yloxy)phenyl)-6-thioxo-5,7-diazaspiro[3.4]octan-7-yl)-2-(trifluoromethyl)benzonitrile]
IC50 [1]: 1.06 µM
melting point: 172.4 °C

CN1CCC(Oc2ccc(N3C(=S)N(c4ccc(C#N)c(C(F)(F)F)c4)C(=O)C34CCC4)cc2)CC1 [Compound 12, 4-(5-(4-((1-Methylpiperidin-4-yl)oxy)phenyl)-8-oxo-6-thioxo-5,7-diazaspiro[3.4]octan-7-yl)-2-(trifluoromethyl)benzonitrile]
IC50 [1]: 21 µM
melting point: 99.3 °C

N#Cc1ccc(N2C(=O)C3(CCC3)N(c3ccc(OC4CCNCC4)nc3)C2=S)cc1C(F)(F)F [Compound 13, 4-(8-Oxo-5-(6-(piperidin-4-yloxy)pyridin-3-yl)-6-thioxo-5,7-diazaspiro[3.4]octan-7-yl)-2-(trifluoromethyl)benzonitrile hydrochloride]
IC50 [1]: 0.54 µM

CN1CCC(Oc2ccc(N3C(=S)N(c4ccc(C#N)c(C(F)(F)F)c4)C(=O)C34CCC4)cn2)CC1 [Compound 14, 4-(5-(6-((1-Methylpiperidin-4-yl)oxy)pyridin-3-yl)-8-oxo-6-thioxo-5,7-diazaspiro[3.4]octan-7-yl)-2-(trifluoromethyl)benzonitrile]
IC50 [1]: 13.1 µM
IC50 [2]: 1.25 µM

N#Cc1ccc(N2C(=O)C3(CCC3)N(c3cnc(OC4CCNCC4)nc3)C2=S)cc1C(F)(F)F [Compound 15, 4-(8-Oxo-5-(2-(piperidin-4-yloxy)pyrimidin-5-yl)-6-thioxo-5,7-diazaspiro[3.4]octan-7-yl)-2-(trifluoromethyl)benzonitrile]
melting point: 137.4 °C
IC50 [2]: 1.53 µM

CN1CCC(Oc2ncc(N3C(=S)N(c4ccc(C#N)c(C(F)(F)F)c4)C(=O)C34CCC4)cn2)CC1 [Compound 16, 4-(5-(2-((1-Methylpiperidin-4-yl)oxy)pyrimidin-5-yl)-8-oxo-6-thioxo-5,7-diazaspiro[3.4]octan-7-yl)-2-(trifluoromethyl)benzonitrile]
IC50 [1]: 5.29 µM
melting point: 161.9 °C

Cc1cc(N2C(=O)C3(CCC3)N(c3ccc(OC4CCN(C)CC4)cc3)C2=S)ccc1C#N [Compound 17, 2-Methyl-4-(5-(4-((1-methylpiperidin-4-yl)oxy)phenyl)-8-oxo-6-thioxo-5,7-diazaspiro[3.4]octan-7-yl)benzonitrile]
IC50 [1]: 3.42 µM

Cc1cc(N2C(=O)C3(CCC3)N(c3ccc(OC4CCN(C)CC4)nc3)C2=S)ccc1C#N [Compound 18, 2-Methyl-4-(5-(6-((1-methylpiperidin-4-yl)oxy)pyridin-3-yl)-8-oxo-6-thioxo-5,7-diazaspiro[3.4]octan-7-yl)benzonitrile]
IC50 [1]: 12.1 µM
IC50 [2]: 0.84 µM

COc1cc(N2C(=O)C3(CCC3)N(c3ccc(OC4CCN(C)CC4)cc3)C2=S)ccc1C#N [Compound 19, 2-Methoxy-4-(5-(4-((1-methylpiperidin-4-yl)oxy)phenyl)-8-oxo-6-thioxo-5,7-diazaspiro[3.4]octan-7-yl)benzonitrile]
IC50 [1]: 9.87 µM
IC50 [2]: 21.4 µM

COc1cc(N2C(=O)C3(CCC3)N(c3ccc(OC4CCN(C)CC4)nc3)C2=S)ccc1C#N [Compound 20, 2-Methoxy-4-(5-(6-((1-methylpiperidin-4-yl)oxy)pyridin-3-yl)-8-oxo-6-thioxo-5,7-diazaspiro[3.4]octan-7-yl)benzonitrile]
IC50 [1]: 1.4 µM
IC50 [2]: 1.69 µM

N#Cc1ccc(N2C(=O)C3(CCC3)N(c3ccc(OC4CCNCC4)cc3)C2=S)cc1Cl [Compound 21, 2-Chloro-4-(8-oxo-5-(4-(piperidin-4-yloxy)phenyl)-6-thioxo-5,7-diazaspiro[3.4]octan-7-yl)benzonitrile]
IC50 [1]: 1.25 µM
melting point: 211 °C
IC50 [2]: 3.78 µM

CN1CCC(Oc2ccc(N3C(=S)N(c4ccc(C#N)c(Cl)c4)C(=O)C34CCC4)cc2)CC1 [Compound 22, 2-Chloro-4-(5-(4-((1-methylpiperidin-4-yl)oxy)phenyl)-8-oxo-6-thioxo-5,7-diazaspiro[3.4]octan-7-yl)benzonitrile]
IC50 [1]: 0.58 µM
melting point: 152.2 °C
IC50 [2]: 3.78 µM

N#Cc1ccc(N2C(=O)C3(CCC3)N(c3ccc(OC4CCNCC4)nc3)C2=S)cc1Cl [Compound 23, 2-Chloro-4-(8-oxo-5-(6-(piperidin-4-yloxy)pyridin-3-yl)-6-thioxo-5,7-diazaspiro[3.4]octan-7-yl)benzonitrile hydrochloride]
IC50 [1]: 0.54 µM
